Assay results as given in PMC6934700, “Structure-Guided Design of a Fluorescent Probe for the Visualization of FtsZ in Clinically Important Gram-Positive and Gram-Negative Bacterial Pathogens” (Scientific Reports, 2019).
In brackets after ≈: the same amount, converted by molar mass. Read-outs that look alike come from different tables or passages of the source.

Key:
[1] = molecular target: T1, FtsZ in E. faecalis ATCC 29212 cells (Enterococcus faecalis, UniProt O08439); assay: FtsZ visualization by fluorescence microscopy in live cells; type: cell-based; conditions: 1 µg/mL for 5 minutes
T1 construct: host or cells: E. faecalis ATCC 29212
Protocol: (§1) All differential interference contrast (DIC) and fluorescence microscopy experiments were conducted using an Olympus BX50 microscope equipped with an X-cite Exacte 200 W mercury lamp, a 100× Olympus UPLSAPO oil immersion objective (1.40 aperture), as well as both Chroma ET-EGFP (FITC/Cy2) and ET mCherry, Texas Red filters. Images were captured using a QImaging Retiga R3 charge-coupled device (CCD) camera and the Ocular-Version 2.0 software package (QImaging).
(§2) For visualizing FtsZ in Gram-positive bacteria using BOFP, the bacterial cells were grown to log-phase in media suitable for each individual pathogen. Specifically, S. aureus NRS705 (MRSA) was grown in tryptic soy broth (TSB), E. faecalis ATCC 29212 and E. faecium ATCC 19434 were grown in lactobacilli MRS broth, S. agalactiae ATCC 12386 and S. pneumoniae ATCC 49619 were grown in TH broth, and S. pyogenes ATCC 19615 was grown in CAMH broth supplemented with 3% (v/v) LHB. For each Gram-positive bacterial strain, a total of 1 mL of cell culture was centrifuged at 15,000 × g for 1 minute and washed 2–3 times with 1 mL of PBS. After the final wash, the pelleted cells were resuspended in 500 µL of PBS containing 1 µg/mL of BOFP and incubated in the dark for 5 minutes at room temperature. The cells were then centrifuged at 15,000 × g for 1 minute, washed twice with 1 mL of PBS, and subsequently resuspended in 200 µL of PBS. […]

[2] = tested on: FtsZ in E. faecium ATCC 19434 cells; assay: as above; type: cell-based, Enterococcus faecium; conditions: 1 µg/mL for 5 minutes
Protocol: as §1, §2

MRSA LAC FtsZ-mCherry = assay: Colocalization of BOFP labeling with induced FtsZ-mCherry fusion protein; type: cell-based, Staphylococcus aureus; conditions: 1 µg/mL BOFP for 5 minutes; vehicle-treated and 1-treated cells
Protocol: as §1
To visualize the impact of treating MRSA LAC FtsZ-mCherry with 1, cells were grown to log-phase in CAMH broth and diluted to an OD600 of 0.1. […] Following this treatment, 1–5 mL of each culture was centrifuged at 15,000 × g for 1 minute and washed twice with 1 mL of PBS. The resulting cell pellets were further processed and labeled with BOFP as described above for the Gram-positive bacterial strains.

S. aureus NRS705 (MRSA) = assay: MIC assay by broth microdilution; type: cell-based, Staphylococcus aureus; conditions: Staphylococcus aureus; MRSA NRS705; TH broth; ≥90% growth inhibition after 18-24 hours
Protocol: MIC assays of 1, 3, and BOFP were conducted by standard broth microdilution in TH media. Briefly, log-phase S. aureus NRS705 (MRSA) cells were added to 96-well microtiter plates (at 5 × 10^5 CFU/mL) containing 2-fold serial dilutions of each test compound in 0.1 mL of TH broth, with each compound concentration being present in duplicate. The MIC is defined as the lowest compound concentration at which growth is ≥90% inhibited after 18-24 hours of aerobic growth.

P. aeruginosa (PaFtsZ) = molecular target: T2, P. aeruginosa (PaFtsZ) (Pseudomonas aeruginosa, UniProt P47204); assay: Fluorescence anisotropy binding of BOFP to PaFtsZ; conditions: for Kd: 50 mM Tris-HCl (pH 7.6), 50 mM KCl, 0.1 µM BOFP
T2 construct: 6xHis (C); made in house; host or cells: E. coli BLR (DE3), pET-22b(+)
T2 sequence (P47204 1-394): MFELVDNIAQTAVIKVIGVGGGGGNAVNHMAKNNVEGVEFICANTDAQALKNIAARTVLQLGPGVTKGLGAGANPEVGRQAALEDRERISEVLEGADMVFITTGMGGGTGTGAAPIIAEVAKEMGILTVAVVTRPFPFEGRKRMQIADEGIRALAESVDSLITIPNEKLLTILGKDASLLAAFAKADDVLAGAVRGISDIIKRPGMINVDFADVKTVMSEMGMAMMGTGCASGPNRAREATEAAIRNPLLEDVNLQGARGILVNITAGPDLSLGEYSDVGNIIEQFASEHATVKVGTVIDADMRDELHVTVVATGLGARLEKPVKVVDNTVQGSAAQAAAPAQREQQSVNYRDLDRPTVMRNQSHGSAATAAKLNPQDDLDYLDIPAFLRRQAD
Protocol: Fluorescence anisotropy experiments were performed using an AVIV model ATF105 spectrofluorometer at 15, 25, or 37 °C. In these experiments, bandwidths were set to 4 nm in both the excitation and emission directions, with the excitation and emission wavelengths being set at 488 nm and 510 nm, respectively. BOFP (0.1 µM) was titrated with increasing concentrations (ranging from 0 to 12 µM) of FtsZ in 120 µL of buffer containing 50 mM Tris-HCl (pH 7.6) and 50 mM KCl. After each protein addition, the samples were equilibrated for 3 minutes, whereupon the fluorescence anisotropy was measured.
In this equation, r0 is the anisotropy of the protein-free compound, r∞ is the anisotropy of the compound in the presence of an infinite concentration of FtsZ, [C]tot is the total concentration of the compound, and [P]tot is the total concentration of protein with each addition. These analyses yielded the equilibrium dissociation constant (Kd) for each binding reaction.
The binding free energy (ΔG) at temperature T was derived from the corresponding Kd value determined at T using the following relationship:2 ΔG=−RTln(1/Kd)
The binding enthalpy (ΔH) and entropy (ΔS) were derived from linear fits of the ln(1/Kd) vs. 1/T plots shown in Figs. 3f and 5e using the following relationship:3 ln(1/Kd)=−ΔH/R(1/T)+ΔS/R
In comparative control experiments, the anisotropy of 0.1 µM BODIPY FL-COOH or BOFP alone or in the presence of SaFtsZ (10 µM), SpyFtsZ (10 µM), KpFtsZ (2 µM), or PaFtsZ (2 µM) was measured at 37 °C in the same buffer described above.

T1 sequence (O08439 whole entry): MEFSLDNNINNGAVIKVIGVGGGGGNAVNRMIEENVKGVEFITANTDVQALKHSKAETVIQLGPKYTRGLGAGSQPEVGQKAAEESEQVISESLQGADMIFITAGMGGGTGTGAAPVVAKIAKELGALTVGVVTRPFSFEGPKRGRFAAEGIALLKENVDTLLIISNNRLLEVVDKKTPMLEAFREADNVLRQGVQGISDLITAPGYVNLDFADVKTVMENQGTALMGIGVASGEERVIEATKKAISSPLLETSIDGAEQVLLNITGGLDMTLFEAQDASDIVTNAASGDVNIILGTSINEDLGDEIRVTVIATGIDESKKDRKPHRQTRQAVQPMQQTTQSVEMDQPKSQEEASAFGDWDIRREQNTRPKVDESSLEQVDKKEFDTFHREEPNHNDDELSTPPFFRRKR

In the case of `CC1=CC(C)=[N+]2C1=Cc1ccc(CCC(=O)OCC(Oc3ccc(F)c(C(N)=O)c3F)c3nc(-c4ccc(C(F)(F)F)cc4)c(Br)o3)n1[B-]2(F)F` (stereo not drawn) [BOFP], the “Fluorescence staining / FtsZ labeling in live cells” value [1] is reported as “bright bands of fluorescence staining are clearly visible at midcell”, the “Fluorescence staining / FtsZ labeling in live cells” value [2] is reported as “bright bands of fluorescence staining are clearly visible at midcell” and the “Colocalization of BOFP green fluorescence with FtsZ-mCherry red fluorescence” value (MRSA LAC FtsZ-mCherry) is reported as “colocalizes with the red fluorescence”. It also gave an MIC (S. aureus NRS705 (MRSA)) of 1 µg/mL (≈ 1.28 µM), a Kd (P. aeruginosa (PaFtsZ); 15 °C, read-out: Kd - 15 °C) of 230 ± 20 nM and a Kd (P. aeruginosa (PaFtsZ); 25 °C, read-out: Kd - 25 °C) of 360 ± 60 nM. For the same compound, the Kd (P. aeruginosa (PaFtsZ); 37 °C, read-out: Kd - 37 °C) was 580 ± 60 nM, the ΔG (P. aeruginosa (PaFtsZ); calculated at T = 310 K (37 °C) from Kd) was -8.8 ± 0.1 kcal/mol and the ΔH (P. aeruginosa (PaFtsZ); from linear fit of ln(1/Kd) vs. 1/T) was -7.7 ± 0.2 kcal/mol.
